Data set [1] relates to α5-containing GABAA receptor. The data set is classed as in vivo, rat. The conditions noted are these: 0.01-10 mg/kg, i.v.
Data set [2] addresses T1, α5-containing GABAA receptor (Rattus norvegicus, UniProt P18508+P19969).
T1 construct: occupancy in the hippocampus (a region of high GABAAα5 receptor density); from tissue; host or cells: rat brain in vivo; hippocampus versus cerebellum
The data set is classed as in vivo. The conditions noted are these: i.v.; for effect on Ro 15-4513 binding in hippocampus: 0.01-10 mg/kg.

Data set [3] deals with aged-impaired (AI) rats. Description: Radial Arm Maze (RAM) behavioral task, four-hour delay (Example 108). The data set is classed as in vivo, rat.
Description: The same experiment was repeated using the same vehicle control and doses of ethyl 3-methoxy-7-methyl-9H-benzo[f]imidazo[1,5-a][1,2,4]triazolo[4,3-d][1,4]diazepine-10-carboxylate, where the vehicle control was tested 5 times, the 3 mg/kg dose of ethyl 3-methoxy-7-methyl-9H-benzo[f]imidazo[1,5-a][1,2,4]triazolo[4,3-d][1,4]diazepine-10-carboxylate was tested 4 times, and the other doses of ethyl 3-methoxy-7-methyl-9H-benzo[f]imidazo[1,5-a][1,2,4]triazolo[4,3-d][1,4]diazepine-10-carboxylate were tested twice.
Parametric statistics (paired t-tests) was used to compare the retention test performance of the AI rats in the four-hour delay version of the RAM task in the context of different doses of ethyl 3-methoxy-7-methyl-9H-benzo[f]imidazo[1,5-a][1,2,4]triazolo[4,3-d][1,4]diazepine-10-carboxylate and vehicle control (see FIG. 5).
The format of data set [4] is in vivo, Long Evans rats. The settings on record: i.v. On the procedure:
(§1) Food and water were available ad libitum.
For plasma exposures, blood samples were centrifuged at 14000 rpm for 16 minutes. After centrifuging, 50 ul of supernatant (plasma) from each sample was added to 200 μl of acetonitrile plus 0.1% formic acid. […] Samples were sonicated for 5 minutes in an ultrasonic water bath, followed by centrifugation for 30 minutes, at 16000 RPM. 100 ul of supernatant was removed from each sample vial and placed in a new glass auto sample vial, followed by the addition of 300 μl of sterile water (pH 6.5).

Data set [5] deals with aged-impaired (AI) rats. Description: Radial Arm Maze (RAM) behavioral task, two-hour delay (Example 107A). The data set is classed as in vivo, rat. The conditions noted are these: 3 mg/kg ip. On the procedure:
The effects of methyl 3,5-diphenylpyridazine-4-carboxylate on the in vivo spatial memory retention of aged-impaired (AI) rats were assessed in a Radial Arm Maze (RAM) behavioral task using vehicle control and four different dosage levels of methyl 3,5-diphenylpyridazine-4-carboxylate (0.1 mg/kg, 0.3 mg/kg, 1 mg/kg and 3 mg/kg, ip). RAM behavioral tasks were performed on eight AI rats. All five treatment conditions (vehicle and four dosage levels) were tested on all eight rats.
The RAM apparatus used consisted of eight equidistantly-spaced arms. An elevated maze arm (7 cm width×75 cm length) projected from each facet of an octagonal center platform (30 cm diameter, 51.5 cm height). Clear side walls on the arms were 10 cm high and were angled at […] to form a trough. A food well (4 cm diameter, 2 cm deep) was located at the distal end of each arm. Froot Loops™ (Kellogg Company) were used as rewards. Blocks constructed of Plexiglas™ (30 cm height×12 cm width) could be positioned to prevent entry to any arm. Numerous extra maze cues surrounding the apparatus were also provided.
The AI rats were initially subjected to a pre-training test (Chappell et al. Neuropharmacology 37: 481-487, 1998). […]

The target of a further data set is α5-containing GABAA R (Homo sapiens, UniProt P18507+P31644). The settings on record: cited from earlier work.
Chain of α5-containing GABAA R (P31644 32-462): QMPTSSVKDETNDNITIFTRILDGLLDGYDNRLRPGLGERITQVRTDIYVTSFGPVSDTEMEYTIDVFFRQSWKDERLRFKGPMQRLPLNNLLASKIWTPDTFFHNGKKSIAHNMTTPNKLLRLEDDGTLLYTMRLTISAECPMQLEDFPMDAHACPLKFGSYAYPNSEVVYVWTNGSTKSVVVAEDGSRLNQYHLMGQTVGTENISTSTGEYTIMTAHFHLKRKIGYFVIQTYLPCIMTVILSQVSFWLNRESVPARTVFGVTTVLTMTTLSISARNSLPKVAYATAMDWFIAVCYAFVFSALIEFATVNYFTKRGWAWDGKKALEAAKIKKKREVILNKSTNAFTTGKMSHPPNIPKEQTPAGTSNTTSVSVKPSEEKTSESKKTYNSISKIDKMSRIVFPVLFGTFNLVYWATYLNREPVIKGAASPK
Chain of α5-containing GABAA R (P28472 26-473 partner): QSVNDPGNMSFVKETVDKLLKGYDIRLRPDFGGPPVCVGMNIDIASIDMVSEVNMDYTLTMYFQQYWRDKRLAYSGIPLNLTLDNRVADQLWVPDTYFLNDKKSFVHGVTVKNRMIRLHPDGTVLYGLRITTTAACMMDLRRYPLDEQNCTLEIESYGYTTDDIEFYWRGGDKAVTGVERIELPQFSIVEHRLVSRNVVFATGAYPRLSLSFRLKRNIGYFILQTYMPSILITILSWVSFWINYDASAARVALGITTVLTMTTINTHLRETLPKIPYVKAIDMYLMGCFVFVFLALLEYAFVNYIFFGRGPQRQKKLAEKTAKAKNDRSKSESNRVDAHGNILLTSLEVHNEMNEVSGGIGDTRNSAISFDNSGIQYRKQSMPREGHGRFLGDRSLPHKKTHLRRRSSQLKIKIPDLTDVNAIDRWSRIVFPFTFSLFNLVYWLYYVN
Chain of α5-containing GABAA R (P18507 40-475): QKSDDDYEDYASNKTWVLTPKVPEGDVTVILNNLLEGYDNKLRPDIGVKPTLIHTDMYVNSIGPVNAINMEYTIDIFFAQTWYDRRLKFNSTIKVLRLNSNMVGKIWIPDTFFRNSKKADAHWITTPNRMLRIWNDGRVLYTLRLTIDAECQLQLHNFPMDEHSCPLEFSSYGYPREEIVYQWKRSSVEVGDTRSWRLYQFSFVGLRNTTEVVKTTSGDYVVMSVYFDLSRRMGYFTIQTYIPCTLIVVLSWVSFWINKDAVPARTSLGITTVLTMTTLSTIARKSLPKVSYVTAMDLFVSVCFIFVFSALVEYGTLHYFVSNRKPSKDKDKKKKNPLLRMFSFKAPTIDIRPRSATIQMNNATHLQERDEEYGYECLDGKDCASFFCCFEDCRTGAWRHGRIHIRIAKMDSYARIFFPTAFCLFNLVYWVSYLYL
The target of another data set is T2, GABAAα5 receptor (Rattus norvegicus, UniProt P18508+P19969).
T2 construct: occupancy in the hippocampus (a region of high GABAAα5 receptor density); from tissue; host or cells: rat brain in vivo; hippocampus versus cerebellum
T2 sequence (P19969 32-464 limits assumed): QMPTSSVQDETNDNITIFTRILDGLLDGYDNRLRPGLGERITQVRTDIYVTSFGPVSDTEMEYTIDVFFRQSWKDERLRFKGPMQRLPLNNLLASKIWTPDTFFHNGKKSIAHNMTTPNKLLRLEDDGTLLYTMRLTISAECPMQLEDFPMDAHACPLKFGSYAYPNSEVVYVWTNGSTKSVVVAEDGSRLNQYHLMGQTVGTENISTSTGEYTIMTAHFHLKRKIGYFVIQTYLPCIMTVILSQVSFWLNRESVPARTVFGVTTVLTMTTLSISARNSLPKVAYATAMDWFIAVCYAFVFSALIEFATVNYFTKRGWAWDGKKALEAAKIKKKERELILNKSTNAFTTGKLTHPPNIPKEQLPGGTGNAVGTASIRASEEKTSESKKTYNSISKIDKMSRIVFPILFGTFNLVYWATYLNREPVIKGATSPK
T2 sequence (P18508 39-466): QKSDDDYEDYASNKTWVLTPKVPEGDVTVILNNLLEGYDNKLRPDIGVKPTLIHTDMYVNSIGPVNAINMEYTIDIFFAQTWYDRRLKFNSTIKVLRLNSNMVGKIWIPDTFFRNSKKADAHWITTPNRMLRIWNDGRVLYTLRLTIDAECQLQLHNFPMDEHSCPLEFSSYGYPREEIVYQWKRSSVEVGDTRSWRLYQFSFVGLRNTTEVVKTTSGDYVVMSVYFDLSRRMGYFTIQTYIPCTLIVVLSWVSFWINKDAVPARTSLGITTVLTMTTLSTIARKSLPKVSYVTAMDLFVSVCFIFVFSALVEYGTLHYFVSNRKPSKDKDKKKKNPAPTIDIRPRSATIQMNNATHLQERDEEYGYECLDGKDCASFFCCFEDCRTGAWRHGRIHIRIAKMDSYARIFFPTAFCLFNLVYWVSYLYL
The data set is described as follows: GABAA α5 receptor occupancy with Ro 15-4513 tracer (Example 107B). The data set is classed as in vivo, Long Evans rats.
Description: as §1

Entries after “also recorded” stand apart in the source; their conditions may differ. Read-outs that look alike come from different tables or passages of the source. A value given as a limit tells only on which side of the number the result lay.

T1 sequence (P19969 32-464 limits assumed): as the sequence (P19969 32-464 limits assumed) above
T1 sequence (P18508 39-466): as the sequence (P18508 39-466) above

On to `CCOC(=O)c1ncn2c1Cn1c(C)nnc1-c1cc(OC)ccc1-2` [Ethyl 3-methoxy-7-methyl-9H-benzo[f]imidazo[1,5-a][1,2,4]tri], for which the “effect on cerebellum levels of Ro 15-4513” value (“effect on cerebellum levels” for short) in data set [1] is on record as “did not affect binding”. Moreover, the “effect on Ro 15-4513 binding in hippocampus” value (“effect on Ro 15-4513 binding” below) in data set [2] is reported as “blocked the binding”.
Regarding `CCOC(=O)c1ncn2c1Cn1c(C)nnc1-c1cc(OC)ccc1-2` [ethyl 3-methoxy-7-methyl-9H-benzo[f]imidazo[1,5-a][1,2,4]tri], the “effect on cerebellum levels” value in data set [1] is listed as “without affecting”. Further, the “effect on Ro 15-4513 binding” value in data set [2] is reported as “reduced Ro 15-4513 binding in hippocampus”. For the same molecule, the “α5-containing GABAA receptor occupancy” value in data set [2] (10 mg/kg) was above 90%. For the same molecule, the “memory performance relative to vehicle control” value in the data set with aged-impaired (AI) rats [3] (3 mg/kg, t(7)=4.13, p=0.004, or t(7)=3.08, p=0.018) was “significantly improved memory performance”; with aged-impaired (AI) rats [3] (10 mg/kg, t(7)=2.82, p=0.026), “significantly improved memory performance”.
Broadly, the ED50 is the dose at which the effect has come halfway, by size or by number of responders. As for `COC(=O)c1c(-c2ccccc2)cnnc1-c1ccccc1` [methyl 3,5-diphenylpyridazine-4-carboxylate], the “increase in hippocampal exposure” value in data set [4] (dose from 0.1 to 1 mg/kg) came to 12 fold. Moreover, in data set [4] (dose from 1 to 10 mg/kg), the “increase in hippocampal exposure” value is around 5 fold and the “increase in plasma exposure” value was found to be 12 fold. For the same molecule, the “memory performance relative to vehicle control” value in the data set with aged-impaired (AI) rats [5] (t(7)=4.233, p=0.004) is listed as “significantly improved memory performance”. In the data set with aged-impaired (AI) rats [5] (two-hour delay), the “average no. of errors ± SEM in retention test” value came to 1.31±0.40. In addition, the “α5 in vitro efficacy (EC20)” value at α5-containing GABAA R is on record as “+27”. On GABAAα5 receptor (0.01-10 mg/kg, i.v.), the “effect on Ro 15-4513 binding” value is “blocked the binding; also recorded: dose-dependently reduced” and the “effect on cerebellum levels” value is “did not affect binding; also recorded: without affecting”. Further, the “GABAA α5 receptors occupied at exposures behaviorally active in aged-impaired rats” value on GABAAα5 receptor (hippocampus, FIG. 4) is “about 32%”. On GABAAα5 receptor (i.v.), the “ED50 of receptor occupancy, ratio method” value was found to be 1.8 mg/kg. Besides, at GABAAα5 receptor (rat, in vivo), the “GABAA α5 receptor occupancy, dose dependence” value is “dose-dependent increase”. Moreover, the receptor occupancy at 10 mg/kg on GABAAα5 receptor (rat, iv, 10 mg/kg) is above 90%. The ED50 on GABAAα5 receptor (rat, iv, read-out: ED50 of receptor occupancy, using L-755,608 to define occupancy) was found to be 1.1 mg/kg.

These data come from patent publication US11142529B2 (priority 2013, dated 2021).
